Test results taken from patent US7019109B2, “SSTR1-selective analogs” (The Salk Institute for Bilogical Studies, priority 2001, dated 2006).
Read-outs that look alike come from different tables or passages of the source. Each block holds one compound with its values, some of them ahead of it. *1 amine or outer side, *2 acyl side, *3 side chain or, on linkers, in order; H or OH if unused. Where a SMILES comes first, the peptide text is derived from it. Bridges are numbered along the chain shown (N, C = ends). [ ]: non-standard residue; d: D form. NMePhe(4-CH2NHiPr) = CN[C@@H](Cc1ccc(CNC(C)C)cc1)C(=O)O; Phe(4-CH2NHiPr) = CC(C)NCc1ccc(C[C@H](N)C(=O)O)cc1; Tyr(3-I) = N[C@@H](Cc1ccc(O)c(I)c1)C(=O)O; X1 = NC(=O)N[C@@H](CS[*:2])C(=O)[*:1]; X2 = NC(=O)N[C@H](CS[*:2])C(=O)[*:1]

Assays:
Type in all cases: binding
human SSTR2 = target: T1, human SSTR2 (Homo sapiens, UniProt P30874); experiment: Displacement of 125I-[Leu8,D-Trp22,Tyr25]-SRIF-28 from cloned SSTR2 (receptor autoradiography); conditions: for IC50: read-out: IC50 (nM) mSSTR2
T1 construct: expressed in transfected cells; host or cells: CHO-K1 cells and CCL39 cells
T1 sequence (P30874 whole entry): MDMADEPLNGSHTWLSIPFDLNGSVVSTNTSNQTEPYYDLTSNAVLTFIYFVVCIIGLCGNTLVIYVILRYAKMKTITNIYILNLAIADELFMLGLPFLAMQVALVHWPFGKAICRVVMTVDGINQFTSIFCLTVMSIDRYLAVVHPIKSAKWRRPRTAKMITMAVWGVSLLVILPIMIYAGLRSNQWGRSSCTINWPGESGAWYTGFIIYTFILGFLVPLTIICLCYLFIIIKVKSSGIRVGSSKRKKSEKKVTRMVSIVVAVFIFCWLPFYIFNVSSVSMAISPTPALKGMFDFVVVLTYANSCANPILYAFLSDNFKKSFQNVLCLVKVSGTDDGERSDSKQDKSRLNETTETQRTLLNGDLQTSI
Procedure: (§1) Generally, recombinant cells expressing the receptor are washed and homogenized to prepare a crude protein homogenate that is frozen, embedded and then cut in 10–20 μm thin sections, as known in this art. Candidate substances, such as potential SRIF agonists and antagonists, are incubated with the tissue sections, and the interaction between the candidate substance and the receptor polypeptide is monitored.
(§2) Receptor binding assays are performed on cloned SRIF receptors as generally set forth in Reubi, J. C. et al., J. Clin. Endocrinol. […] Med. 2000, 27, 273–282.
(§3) In vitro Bioassay: The various somatostatin analogs are tested in vitro for their ability to bind to isolated cloned receptors expressed on CHO-K1 cells and CCL39 cells. CHO-K1 cells are grown in Ham's F-12 medium, and CCL39 cells are grown in Dulbecco's modified Eagle's medium/Ham's F-12(1:1) mix, supplemented with 10% fetal bovine serum, 100 U/ml penicillin and 100 μg/ml streptomycin, in humidified air containing 5% CO2 at 37° C.
(§4) Cells are washed and prepared to produce homogenates as described in detail in Reubi, J. C. et al, Eur. J. Nucl. Med. 2000, 27, 273–282.
(§5) Receptor autoradiography is performed on 20 μm thick cryostat sections of the membrane pellets, mounted on microscope slides, and then stored at −20° C. […] […] […] IC50 values are calculated after quantification of the data using a computer-assisted image processing system as known in this art.

human SSTR1 = target: T2, human SSTR1 (Homo sapiens, UniProt P30872); experiment: Displacement of 125I-[Leu8,D-Trp22,Tyr25]-SRIF-28 from cloned SSTR1 (receptor autoradiography); conditions: for IC50: inhibition of radioligand binding of 125I-[Leu8,D-Trp22,Tyr24]SRIF-28, cloned receptor, table, read-out: IC50 (nM) mSSTR1; for binding strength and selectivity for SSTR1, in words: Peptide No. 27 and 2A after iodination
T2 construct: expressed in transfected cells; host or cells: CHO-K1 cells and CCL39 cells
T2 sequence (P30872 whole entry): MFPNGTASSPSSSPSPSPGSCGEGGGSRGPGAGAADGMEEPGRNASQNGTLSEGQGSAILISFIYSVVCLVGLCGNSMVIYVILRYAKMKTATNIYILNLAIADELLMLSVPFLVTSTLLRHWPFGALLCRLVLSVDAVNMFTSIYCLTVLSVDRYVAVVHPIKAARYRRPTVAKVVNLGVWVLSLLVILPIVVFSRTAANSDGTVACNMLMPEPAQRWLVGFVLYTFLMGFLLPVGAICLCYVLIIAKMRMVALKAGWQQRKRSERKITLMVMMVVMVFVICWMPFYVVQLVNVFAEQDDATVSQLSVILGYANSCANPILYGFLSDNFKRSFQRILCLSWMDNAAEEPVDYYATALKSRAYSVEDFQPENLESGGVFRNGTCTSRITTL
Procedure: as §1, §2, §3, §4
(§6) Receptor autoradiography is performed on 20 μm thick cryostat sections of the membrane pellets, mounted on microscope slides, and then stored at −20° C. […] Increasing concentrations of the unlabeled peptide are used ranging from 0.1–1000 nM. […] IC50 values are calculated after quantification of the data using a computer-assisted image processing system as known in this art.

human SSTR3 = target: T3, human SSTR3 (Homo sapiens, UniProt P32745); experiment: Displacement of 125I-[Leu8,D-Trp22,Tyr25]-SRIF-28 from cloned SSTR3 (receptor autoradiography); conditions: for IC50: read-out: IC50 (nM) mSSTR3
T3 construct: expressed in transfected cells; host or cells: CHO-K1 cells and CCL39 cells
T3 sequence (P32745 whole entry): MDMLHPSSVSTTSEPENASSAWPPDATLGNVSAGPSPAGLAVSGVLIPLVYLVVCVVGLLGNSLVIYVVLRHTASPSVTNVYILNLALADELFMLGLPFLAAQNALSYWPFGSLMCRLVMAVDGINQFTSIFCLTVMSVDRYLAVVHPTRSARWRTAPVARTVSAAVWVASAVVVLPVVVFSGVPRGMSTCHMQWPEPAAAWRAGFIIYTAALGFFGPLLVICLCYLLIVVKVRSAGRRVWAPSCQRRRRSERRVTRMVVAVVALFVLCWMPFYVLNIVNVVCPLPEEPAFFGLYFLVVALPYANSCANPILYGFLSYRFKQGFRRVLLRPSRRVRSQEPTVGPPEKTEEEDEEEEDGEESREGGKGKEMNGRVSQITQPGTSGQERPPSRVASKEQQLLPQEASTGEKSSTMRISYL
Procedure: as §1, §2, §3, §4, §6

human SSTR4 = target: T4, human SSTR4 (Homo sapiens, UniProt P31391); experiment: Displacement of 125I-[Leu8,D-Trp22,Tyr25]-SRIF-28 from cloned SSTR4 (receptor autoradiography); conditions: for IC50: read-out: IC50 (nM) mSSTR4
T4 construct: expressed in transfected cells; host or cells: CHO-K1 cells and CCL39 cells
T4 sequence (P31391 whole entry): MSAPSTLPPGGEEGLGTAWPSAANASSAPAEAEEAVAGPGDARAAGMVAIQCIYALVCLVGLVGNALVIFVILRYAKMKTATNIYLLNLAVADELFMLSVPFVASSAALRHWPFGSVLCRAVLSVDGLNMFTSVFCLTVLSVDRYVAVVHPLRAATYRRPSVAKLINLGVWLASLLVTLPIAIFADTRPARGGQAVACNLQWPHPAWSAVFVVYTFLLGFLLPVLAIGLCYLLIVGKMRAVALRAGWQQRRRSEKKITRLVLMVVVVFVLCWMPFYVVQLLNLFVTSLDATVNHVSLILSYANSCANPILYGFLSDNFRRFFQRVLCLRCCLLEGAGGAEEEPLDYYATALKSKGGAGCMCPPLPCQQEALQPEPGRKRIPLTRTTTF
Procedure: as §1, §2, §3, §4, §6

human SSTR5 = target: T5, human SSTR5 (Homo sapiens, UniProt P35346); experiment: Displacement of 125I-[Leu8,D-Trp22,Tyr25]-SRIF-28 from cloned SSTR5 (receptor autoradiography); conditions: read-out: IC50 (nM) mSSTR5
T5 construct: expressed in transfected cells; host or cells: CHO-K1 cells and CCL39 cells
T5 sequence (P35346 whole entry): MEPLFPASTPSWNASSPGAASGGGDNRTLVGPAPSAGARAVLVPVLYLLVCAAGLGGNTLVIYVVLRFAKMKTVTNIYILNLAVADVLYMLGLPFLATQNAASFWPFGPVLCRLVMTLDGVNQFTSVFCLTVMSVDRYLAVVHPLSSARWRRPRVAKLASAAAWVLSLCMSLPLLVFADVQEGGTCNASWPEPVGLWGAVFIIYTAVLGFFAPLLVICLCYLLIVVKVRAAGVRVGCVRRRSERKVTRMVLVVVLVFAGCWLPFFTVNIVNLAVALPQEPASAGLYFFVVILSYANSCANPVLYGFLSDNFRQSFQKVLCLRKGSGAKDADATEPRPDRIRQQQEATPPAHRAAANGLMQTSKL
Procedure: as §1, §2, §3, §4, §5

- IC50 (human SSTR2): > 10000 nM
Compound: CC(C)NCc1ccc(C[C@@H]2NC(=O)[C@@H](Cc3c[nH]c4ccccc34)NC(=O)[C@H](Cc3ccccc3)NC(=O)[C@H](Cc3ccccc3)NC(=O)[C@H](CCCCN)NC(=O)[C@@H](NC(N)=O)CSSC[C@@H](C(=O)O)NC(=O)[C@H](CO)NC(=O)[C@H]([C@@H](C)O)NC(=O)[C@H](Cc3ccc(O)c(I)c3)NC(=O)[C@H]([C@@H](C)O)NC2=O)cc1 [Peptide No. 12B] (KFF[dW][Phe(4-CH2NHiPr)]T[Tyr(3-I)]TSC-OH; linker N-10 via X1)

- IC50 (human SSTR1): 17.4 nM
- IC50 (human SSTR2): > 10000 nM
- IC50 (human SSTR3): > 1000 nM
- IC50 (human SSTR4): > 10000 nM
- IC50 (human SSTR5): > 1000 nM
Compound: CC(C)NCc1ccc(C[C@@H]2NC(=O)[C@@H](Cc3c[nH]c4ccccc34)NC(=O)[C@H](Cc3ccccc3)NC(=O)[C@H](Cc3ccccc3)NC(=O)[C@H](CCCCN)NC(=O)[C@H](NC(N)=O)CSSC[C@@H](C(=O)O)NC(=O)[C@H](CO)NC(=O)[C@H]([C@@H](C)O)NC(=O)[C@H](Cc3ccc(O)cc3)NC(=O)[C@H]([C@@H](C)O)NC2=O)cc1 [Peptide No. 12C, (cyclo)CbmD-Cys-Lys-Phe-Phe-D-Trp-IAmp-Thr-Tyr-Thr-Ser-Cys-OH] (KFF[dW][Phe(4-CH2NHiPr)]TYTSC-OH; linker N-10 via X2)

- binding strength and selectivity for SSTR1, in words (human SSTR1): bind strongly and selectively
Compound: (cyclo)Biucys-Lys-Phe-Phe-D-Trp-N^αMeIAmp-Thr-Tyr-Thr-Ser-Cys-OH [Peptide No. 18]

The next lines start with the compound.

Compound: CC(C)NCc1ccc(C[C@H]2C(=O)N[C@@H]([C@@H](C)O)C(=O)N[C@@H](Cc3ccccc3)C(=O)N[C@@H]([C@@H](C)O)C(=O)N[C@@H](CO)C(=O)N[C@H](C(=O)O)CSSC[C@H](NC(=O)[C@@H](N)Cc3ccc(O)cc3)C(=O)N[C@@H](CCCCN)C(=O)N[C@@H](Cc3ccccc3)C(=O)N[C@@H](Cc3ccccc3)C(=O)N[C@H](Cc3c[nH]c4ccccc34)C(=O)N2C)cc1 [Peptide No. 27, (cyclo)H-Tyr-Cys-Lys-Phe-Phe-D-Trp-N^αMeIAmp-Thr-Phe-Thr-Ser-Cys-OH] (H-YCKFF[dW][NMePhe(4-CH2NHiPr)]TFTSC-OH; disulfide 2-12)
- IC50 (human SSTR1): 25 nM
- binding to SSTR2, in words (human SSTR2; Peptide No. 27 iodinated): No specific binding
- IC50 (human SSTR2): > 10000 nM
- binding to SSTR3, in words (human SSTR3; Peptide No. 27 iodinated): No specific binding
- IC50 (human SSTR3): > 1000 nM
- binding to SSTR4, in words (human SSTR4; Peptide No. 27 iodinated): No specific binding
- IC50 (human SSTR4; inhibition of radioligand binding of 125I-[Leu8,D-Trp22,Tyr24]SRIF-28, cloned receptor, table): 300 nM

Compound: (cyclo 3-14)MeCbm-Cys-Lys-Phe-Phe-D-Trp-N^αMeIAmp-Thr-Tyr-Thr-Ser-Cys-OH [Peptide No. 17]
- binding strength and selectivity for SSTR1, in words (human SSTR1): bind strongly and selectively

Compound: (cyclo) (DOTA)Cys-Lys-Phe-Phe-D-Trp-N^αMeIAmp-Thr-Tyr-Thr-Ser-Cys-OH [Peptide No. 25]
- binding strength and selectivity for SSTR1, in words (human SSTR1): continue to bind strongly and selectively

Compound: (cyclo) (DPTA)Cys-Lys-Phe-Phe-D-Trp-N^αMeIAmp-Thr-Tyr-Thr-Ser-Cys-OH [Peptide No. 26]
- binding strength and selectivity for SSTR1, in words (human SSTR1): continue to bind strongly and selectively
